In ChEMBL document CHEMBL1157121, “Diterpenoids from the feces of Trogopterus xanthipes” (J Nat Prod, 2010) one finds IC50 data, which are given here for 19 molecules.

Holding throughout (assay type): functional, cell-based
The test system of one assay is Jurkat. Kind of assay: Cytotoxicity against human Jurkat cells after 48 hrs by MTT assay. A general note: Formazan colour is commonly taken as a measure of viable cells.
The test system of a further assay is HL-60. Nature of the assay: Cytotoxicity against human HL60 cells after 48 hrs by MTT assay. The settings on record: HL-60, 48 h.
The next assay concerns HepG2. Kind of assay: Cytotoxicity against human HepG2 cells after 48 hrs by MTT assay. The settings on record: HepG2, 48 h.
The test system of another assay is U-937. Nature of the assay: Cytotoxicity against human U937 cells after 48 hrs by MTT assay. The settings on record: U-937, 48 h.

Turning to `C=C[C@@]1(C)CC[C@H]2C(=CC[C@H]3C(C)(C)C(=O)CC[C@]23C)C1`, the IC50 (usually the concentration at which inhibition is half-maximal) is > 40 µM with Jurkat, > 40 µM in the assay with HL-60, 32.9 µM with HepG2 and > 40 µM with U-937.

With `CC(C)c1c(O)ccc2c1CC[C@H]1[C@@](C)(CO)C(=O)CC[C@]21C` [TROGOPTEROID D], the 50% inhibitory concentration (IC50) in the assay with Jurkat, in the assay with HL-60, in the assay on HepG2 and in the assay with U-937 was > 40 µM each time.

Take `CC[C@@]1(O)C(=O)OCc2c1cc1n(c2=O)Cc2cc3cc(O)ccc3nc2-1` [HYDROXYCAMPTOTHECIN]: the IC50 in the assay with Jurkat worked out at 0.03 µM; in the assay with HL-60, 0.04 µM; in the assay with HepG2, 3.7 µM; in the assay with U-937, 0.11 µM.

`CC(C)c1c(O)ccc2c1CC[C@H]1[C@@](C)(CO)C(=O)C=C[C@]21C` [TROGOPTEROID G]: the IC50 with Jurkat, with HL-60, in the assay with HepG2 and in the assay with U-937 was > 40 µM each time.

As to `C=C[C@@]1(C)CC[C@H]2C(=CC[C@H]3C(C)(C)[C@@H](O)CC[C@]23C)C1` [ISOPIMARANE], the 50% inhibitory concentration (IC50) in the assay with Jurkat, in the assay with HL-60, in the assay with HepG2 and in the assay with U-937 was > 40 µM throughout.

`C=C[C@@]1(C)CCC2=C(CC[C@H]3C(C)(C)[C@@H](O)CC[C@]23C)C1`: the half-maximal inhibitory concentration (IC50) with Jurkat, in the assay with HL-60, in the assay with HepG2 and in the assay with U-937 was > 40 µM each time.

Consider `CC(C)c1ccc2c(c1O)C[C@@H](O)[C@H]1[C@@](C)(CO)CCC[C@]21C` [MACROPHYNIN E], for which the IC50 with Jurkat, in the assay with HL-60, in the assay on HepG2 and with U-937 was > 40 µM throughout.

Take `CC(C)c1c(O)ccc2c1C[C@@H](O)[C@H]1C(C)(C)C(=O)CC[C@]21C` [TROGOPTEROID E]: the IC50 in the assay with Jurkat, with HL-60, in the assay with HepG2 and with U-937 was > 40 µM throughout.

Take `CC(C)c1c(O)ccc2c1CC[C@H]1C(C)(C)[C@@H](O)CC[C@]21C`: the concentration for half-maximal inhibition (IC50) in the assay on Jurkat was > 40 µM; with HL-60, 24.3 µM; in the assay on HepG2 it was > 40 µM; in the assay with U-937, 24.7 µM.

Regarding `CC(C)c1cc2c(cc1O)[C@@]1(C)CCCC(C)(C)[C@@H]1CC2` [FERRUGINOL], the IC50 in the assay on Jurkat is 35.1 µM; in the assay with HL-60, > 40 µM; in the assay with HepG2, > 40 µM; in the assay with U-937, 19.7 µM.

As to `C=C[C@@]1(C)CC[C@H]2[C@@](O)(CC[C@H]3[C@@](C)(CO)CCC[C@@]32C)C1` [AKHDARDIOL], the IC50 with Jurkat, in the assay with HL-60, in the assay on HepG2 and in the assay on U-937 was > 40 µM each time.

Regarding `CC(C)c1cc2c(cc1O)C[C@@H](O)[C@H]1[C@@](C)(CO)CCC[C@]21C` [TROGOPTEROID F], the IC50 in the assay with Jurkat, in the assay on HL-60, with HepG2 and with U-937 was > 40 µM throughout.

For `C=C[C@]1(C)C[C@]2(O)CC[C@H]3C(C)(C)C(=O)CC[C@]3(C)[C@H]2CC1=O` [TROGOPTEROID B], the IC50 with Jurkat, in the assay on HL-60, with HepG2 and with U-937 was > 40 µM throughout.

With `C=C[C@]1(C)C=C2CC[C@H]3[C@H](C)C(=O)CC[C@]3(C)[C@H]2CC1`, the 50% inhibitory concentration (IC50) in the assay on Jurkat, in the assay with HL-60, in the assay on HepG2 and in the assay on U-937 was > 40 µM throughout.

With `CC(C)c1cc2c(cc1O)CC[C@H]1C(C)(C)CCC[C@]21C` [SEMPERVIROL], the half-inhibitory concentration (IC50) in the assay with Jurkat, in the assay with HL-60, with HepG2 and with U-937 was > 40 µM in each case.

Turning to `C=C[C@]1(C)CC2(O)CC[C@H]3C(C)(C)C(=O)C=C[C@]3(C)[C@H]2CC1=O` (stereo partly specified) [TROGOPTEROID C], the IC50 in the assay on Jurkat, in the assay with HL-60, in the assay on HepG2 and with U-937 was > 40 µM each time.

As for `C=C[C@]1(C)C=C2CC[C@H]3C(C)(C)C(=O)CC[C@]3(C)[C@H]2CC1`, the IC50 with Jurkat, with HL-60, in the assay with HepG2 and in the assay on U-937 was > 40 µM each time.

On to `C=C[C@@]1(C)CC[C@H]2[C@@](O)(CC[C@H]3C(C)(C)C(=O)CC[C@@]32C)C1`, for which the IC50 in the assay on Jurkat, with HL-60, in the assay on HepG2 and in the assay with U-937 was > 40 µM each time.

Consider `CC1=C2C=C[C@]34C[C@](C)(CC[C@@H]3[C@@]2(C)CCC1=O)C(=O)O4` [TROGOPTEROID A], for which the 50% inhibitory concentration (IC50) in the assay with Jurkat, with HL-60, with HepG2 and in the assay with U-937 was > 40 µM throughout.
